Data from patent US20210024498A1, “TETRAHYDROPYRROLE COMPOUND, PREPARATION METHOD THEREFOR, PHARMACEUTICAL COMPOSITION CONTAINING SAME, AND USE THEREOF” (MEDICONNS (SHANGHAI) BIOPHARMACEUTICAL CO., LTD, priority 2017, published 2021).

How the values were obtained:
[1] = biological target: T1, D2 receptor (Homo sapiens, UniProt P14416); experiment: D2 receptor function assay, calcium mobilization (FLIPR); format: cell-based; conditions: HEK293, antagonism of D2 receptor
T1 construct: expressed in transfected cells; host or cells: HEK293
Procedure: (§1) Bioactivity Test • I. D2 receptor affinity assay: The affinity of the compound to D2 receptor was determined by radioligand competition assay, and the cloned D2 receptor was expressed in HEK293 cell line. • II. D2 receptor function assay: The ability of the compound to antagonize the D2 receptor was determined using a calcium mobilization assay (FLIPR). • III. DAT receptor function assay: The ability of the compound to inhibit DAT was determined by neurotransmitter transporter absorption assay.
• Cell line: HEK293 • DMEM medium (Invitrogen) • Fetal bovine serum (FBS, Invitrogen) • L-Glutamine (Invitrogen) G418 (Invitrogen) • Blasticidin (Invitrogen)
• Fluo-4 Direct Kit (Invitrogen)
• 250 mM Probenecid solution was formulated: according to the kit instructions, 1 mL of FLIPR buffer salt solution was added to 77 mg probenecid just before needed. • 2× (8 μM) Fluo-4 Direct™ loading buffer was formulated: the number of tubes in Fluo-4 Direct™ needed for the experiment was melted in advance. Just before needed, 10 ml of FLIPR buffer salt solution and 0.2 mL of 250 mM Probenecid solution were added to each tube and vortexed in dark for more than 5 minutes.
• a) One tube of cells was taken from the liquid nitrogen tank and quickly thawed in 37° C. water bath. • b) The cell suspension was added to a centrifuge tube to which the preheated 20 ml medium was added in advance. • c) The centrifuge tube was centrifuged at 1000 rpm for 5 minutes at room temperature. • d) The supernatant was slowly decanted to avoid affecting the precipitated cells. • e) The cells were resuspended with 10-30 ml medium by pipetting the cells gently with a pipette. • f) The viability and number of cells were calculated with the cell counter. • g) The cells were diluted to 1×10^5 cells/ml with medium, and inoculated in the 384-well polylysine coated cell plate at 20 μL/well. • h) The plate was incubated in an incubator at 5% CO2, 37° C. for 16 to 20 hours.
10 μL of experimental buffer salt solution was added into the cell plate according to the set program, and the fluorescence signal was read. 10 μL of agonist reference compound was further added at a given concentration to the cell plate and the fluorescence signal was read. After reading, the data was derived by “Max-Min” and “Read 90 to Maximum Allowed” methods in the software and EC80 of the corresponding cell line was calculated, and the reference compound with a concentration of 6× EC80 was prepared. • f) The FLIPR instrument software was run. 10 μL of the compound to be tested and the reference compound at a given concentration were added into the cell plate according to the set program, and the fluorescence signal was read. 10 μL of reference compound agonist was further added at a concentration of 6× EC80 to the cell plate and the fluorescence signal was read. • g) Data Analysis • Calculation formula for data in the project:
Inhibitor % activity=100−(signal value per well−average value for high dose control group of inhibitor)/(average value for DMSO control group−average value for high dose control group of inhibitor)*100%.

[2] = biological target: T1, D2 receptor; experiment: D2 receptor affinity assay (radioligand competition, 3H-7-OH-DPAT); format: binding; conditions: cloned D2 receptor expressed in HEK293 cell line; 3H-7-OH-DPAT 1 nM
Procedure: as §1
• Experimental buffer: 50 mM Tris-HCl, pH 7.4, 5 mM MgCl2 • Washing buffer: 50 mM Tris-HCl pH 7.4, stored at 4° C. ready for use.
• The compound and positive control 7-OH-DPAT were serially diluted with DMSO, with the initial concentration of 2 mM and 4 times serial dilution, a total of 10 concentrations. 1 μL was transferred to the designated position of the 96-well plate. • 1 μL droperidol (final concentration 10 μM) was added to the positive control well. 1 μL DMSO was added to the negative control well.
• Receptor cell membrane was diluted to 10 μg/well with corresponding experimental buffer, with 100 μL cell membrane/well.
• 3H-7-OH-DPAT was diluted to 2 nM with corresponding experimental buffer, and the final concentration was 1 nM.
• After 100 μL of cell membrane and isotope were added, respectively, the reaction plate of the D2 receptor was incubated at room temperature for 1 hour. The GF/C filter plate was soaked in 0.3% PEI solution for more than half an hour. After the reaction was completed, the cell membrane was collected on the GF/C filter plate using the […], washed 4 times with cold washing buffer, and then dried in an oven at 50° C. for 1 hour. The dried GF/C filter plate was sealed at the bottom, 50 μL of scintillation fluid was added to each well and the well was sealed. Reads were obtained by MicroBeta and the data was analyzed using GraphPad Prism 5.0.
Ki=IC50/(1+isotope concentration/Kd)

[3] = biological target: DAT (Homo sapiens, UniProt Q01959); experiment: DAT transporter assay (neurotransmitter transporter absorption assay); format: cell-based
Procedure: as §1
• HBSS1×, REPES 20 mM, BSA 0.1%.
• Lyophilized fluorescent dye 1 vial, Assay buffer 10 mL.
• BTCP—hydrochloride (Sigma)
• i) The medium was preheated in 37° C. water bath in advance for more than 30 minutes for later use. • j) The preheated medium was taken out, disinfected with 75% alcohol, and put into a biosafety cabinet. • k) The cultured cells were taken out from the […], and the medium was removed by a vacuum pump. 1× DPBS was added, incubated for a moment, and then removed by a vacuum pump. Appropriate amount of 0.05% trypsin-EDTA was added for cell digestion. The digestion was terminated by 10% FBS medium, and the cells were pipetted and dispersed. • l) The dispersed cells were transferred into a 50 mL centrifuge tube with a pipette.
• a) The reference compound was diluted in a ratio of 1:3 to 10 concentration gradients with the detection buffer containing 0.1% BSA, with the highest concentration being 2 μM. The compound to be tested was diluted to 20 uM with the detection buffer containing 0.1% BSA. • b) A centrifuge (750 rpm, 15 s) was used to spin off the culture solution in the cell culture plate, and the compound solution in step 1 was transferred to the cell culture plate (25 uL/well). • HC (High control): 25 μL of 0.1% BSA detection buffer containing 0.2% DMSO. • LC (Low control): 25 μL of solution containing 2 μM positive antagonist. • c) After centrifugation at 300 rpm for 15 seconds, the plate was incubated at 37° C. for 30 minutes. After the incubation with the compound was completed, a dye solution (25 μL/well) was added and incubated at 37° C. for 30 minutes.
Inhibitor % activity=100−(signal value per well−average value for LC well)/(average value for H well−average value for LC well)*100%.

Sequence of DAT (Q01959 whole entry, species assumed): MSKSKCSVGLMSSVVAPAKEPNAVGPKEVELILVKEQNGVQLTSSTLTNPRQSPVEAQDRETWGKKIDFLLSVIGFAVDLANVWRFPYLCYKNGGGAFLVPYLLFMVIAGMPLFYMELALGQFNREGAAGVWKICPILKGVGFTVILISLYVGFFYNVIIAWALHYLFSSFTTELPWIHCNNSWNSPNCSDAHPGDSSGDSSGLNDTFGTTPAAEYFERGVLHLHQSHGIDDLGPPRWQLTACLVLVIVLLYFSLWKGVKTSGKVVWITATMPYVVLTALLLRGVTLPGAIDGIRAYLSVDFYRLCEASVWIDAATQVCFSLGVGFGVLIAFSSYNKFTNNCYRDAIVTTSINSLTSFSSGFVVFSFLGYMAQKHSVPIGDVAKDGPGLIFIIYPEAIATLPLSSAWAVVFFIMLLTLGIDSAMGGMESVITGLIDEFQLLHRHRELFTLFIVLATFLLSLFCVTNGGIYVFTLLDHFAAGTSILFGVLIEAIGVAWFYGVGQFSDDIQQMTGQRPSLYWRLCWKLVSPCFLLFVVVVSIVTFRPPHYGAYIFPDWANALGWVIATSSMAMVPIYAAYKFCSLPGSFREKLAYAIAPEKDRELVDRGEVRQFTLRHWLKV
T1 sequence (P14416 whole entry): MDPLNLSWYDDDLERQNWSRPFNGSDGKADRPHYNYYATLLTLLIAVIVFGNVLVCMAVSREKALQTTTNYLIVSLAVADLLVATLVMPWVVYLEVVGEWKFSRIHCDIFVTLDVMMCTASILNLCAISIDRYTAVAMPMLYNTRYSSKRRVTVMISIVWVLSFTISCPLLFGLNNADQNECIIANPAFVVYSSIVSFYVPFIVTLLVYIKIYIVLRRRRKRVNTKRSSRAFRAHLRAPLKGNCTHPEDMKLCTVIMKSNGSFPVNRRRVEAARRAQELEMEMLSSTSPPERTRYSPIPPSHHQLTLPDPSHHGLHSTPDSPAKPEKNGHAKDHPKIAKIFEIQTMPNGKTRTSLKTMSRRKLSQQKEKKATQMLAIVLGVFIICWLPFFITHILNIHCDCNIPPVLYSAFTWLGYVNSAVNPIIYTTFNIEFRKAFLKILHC

Row | IC50 [1] [nM] | IC50 [2] [nM] | IC50 [3] [nM] | SMILES
1 | 5.4 | 120 | 936 | O=S(=O)(Nc1cccc(C2CCN(Cc3c[nH]c4ccccc34)C2)c1)c1cccs1 (stereo not drawn) [MDC-161502-008, 1-(indole-3-methyl)-3-[3-(2-thiophenesulfonamido)phenyl]pyrrolidine]
2 | 171 | 639 | 762 | O=S(=O)(CC(F)(F)F)Nc1cccc(C2CCN(Cc3c[nH]c4ccccc34)C2)c1 (stereo not drawn) [MDC-161502-006, 1-(indole-3-methyl)-3-(3-trifluoroethanesulfonamidophenyl)pyrrolidine]

Row | SMILES | IC50 [1] [nM] | IC50 [2] [nM] | IC50 [3] [nM]
3 | Oc1cccc(C2CCN(Cc3c[nH]c4ccccc34)C2)c1 (racemic) [MDC-161502-002, 1-(indole-3-methyl)-3-(3-hydroxyphenyl)pyrrolidine] | 2 | 14 | 181
